Source: article PMC8639922, “KSHV transactivator-derived small peptide traps coactivators to attenuate MYC and inhibits leukemia and lymphoma cell growth” (Communications Biology, 2021)
Where “and” joins values, the source holds several entries; their conditions need not be identical. Equal values may be shown once. Square brackets hold non-standard residues; d marks the D form. Peptide text beside a SMILES is read from it. Orn = NCCC[C@H](N)C(=O)O; βAla = NCCC(=O)O

Columns and labels:
[1] = system: KSHV lytic gene expression in TREx-K-Rta BCBL-1 cells; assay: KSHV genome-wide qRT-PCR array; format: cell-based; settings: D
Experimental: (§1) Because VGN50 is derived from the KSHV transactivator sequence, we next examined if VGN50 can inhibit KSHV lytic replication by competitively blocking the coactivator binding to K-Rta. To study this, we used the TREx-K-Rta BCBL-1 cell line, in which we can trigger the expression of exogenous Flag-tagged K-Rta in a doxycycline (Dox) inducible manner. TREx-K-Rta BCBL-1 cells were treated with […] VGN50 or mutant peptide, with or without Dox induction. We used approximately one-half of the IC50 concentration of VGN50 to treat the TREx-K-Rta BCBL-1 cells in order to avoid cell toxicity effects that would non-specifically decrease viral gene expression. KSHV gene expression was profiled with a KSHV genome-wide PCR array, using ribosomal rRNA for normalization and as an internal control. Fold activation relative to the uninduced Mut-P-treated sample (not induced: Dox -) was determined and a heatmap for KSHV lytic gene expression was generated (Fig. 3a). […] Immunoblotting was used to confirm the induction of lytic replication by Dox based on exogenous K-Rta protein (Flag-K-Rta) and the expression of two other KSHV lytic proteins (ORF57 and K-bZIP) along with actin and KSHV LANA protein as controls for equal loading and similar viral copy numbers in samples, respectively (Fig. 3b).
(§2) Fig. 3 Effects of VGN50 on KSHV gene transcription and VGN50 binding with SWI/SNF components. a KSHV qRT-PCR array analysis was used to study effects of VGN50 on KSHV gene transcription in a genome-wide manner. Uninduced (−; no doxycycline added) or dox-induced (+; 1 μg/ml) cells were treated with VGN50 or the mutant peptide (Mut-P) at a concentration of 24 μM. Samples were collected at 24 h post-treatment. Expression in uninduced cells was set as 1 for each viral gene and expression shown as fold activation relative to no-Dox samples. Selected cellular genes were also included in the PCR array for comparison. 18S ribosomal RNA was used as an internal control. b KSHV protein expression. Immunoblotting was performed to confirm both endogenous and exogenous K-Rta expression before (not induced) and after induction by Dox treatment (Dox-induced). Latent KSHV protein LANA and actin were used as controls for KSHV copy number (LANA) and loading (actin), respectively. Protein samples were collected 48-h post Dox incubation. c KSHV reactivation by VGN50 incubation. BCBL-1 and BC-1 cell lines were treated with VGN50 (16 μM concentration) and total RNA harvested at 24 h post treatment. KSHV PAN RNA expression was examined by qRT-PCR and relative expression over 18S rRNA is shown. Data are presented as mean ± SD (n = 3). d Purification of recombinant SWI/SNF components. SDS-PAGE analysis of five SWI/SNF components individually prepared from baculovirus-infected Sf9 cells. e A schematic illustration of ELISA assay to evaluate VGN50 and SWI/SNF interaction. f Analysis of VGN50 binding to SWI/SNF components by ELISA. Increasing concentrations of biotin-conjugated VGN50 or Mut-P were incubated in duplicate in an ELISA plate coated with each SWI/SNF component. Peptide binding measured as OD values at 450 nm are shown. Mean OD values were compared between the VGN50 and Mut-P in each concentration using unpaired t-test. **p < 0.01, *p < 0.05, NS no significance. Data are presented as mean ± SD with duplicated samples and repeated three times with different purified protein preps.

[2] = system: KSHV PAN RNA in BCBL-1; assay: KSHV PAN RNA qRT-PCR (reactivation); format: cell-based; settings: BCBL-1, 16 μM, 24 h
Experimental: as §1, §2

[3] = values are 2^-ddCT (fold vs MT ND)
[4] = values are 2^-ddCT (fold vs MT ND), listed as MT

CC(C)C[C@H](NC(=O)CCNC(=O)[C@H](CCCNC(=N)N)NC(=O)[C@H](CCCNC(=N)N)NC(=O)[C@H](CCCNC(=N)N)NC(=O)[C@H](CCCN)NC(=O)[C@H](CCCNC(=N)N)NC(=O)[C@H](CCCNC(=N)N)NC(=O)[C@H](CCCCN)NC(=O)[C@H](CCCCN)NC(=O)[C@H](N)CCCNC(=N)N)C(=O)N[C@@H](CO)C(=O)N[C@@H](CO)C(=O)N[C@@H](C)C(=O)N[C@@H](C)C(=O)N[C@@H](C)C(=O)NCC(=O)N[C@@H](CC(C)C)C(=O)N[C@@H](Cc1ccc(O)cc1)C(=O)N[C@@H](CCC(N)=O)C(=O)N[C@@H](CC(C)C)C(=O)N[C@@H](CC(=O)O)C(=O)N[C@H](C(=O)O)[C@@H](C)O [Mt-P] (H-[dR]KKRR[Orn]RRR[βAla]LSSAAAGLYQLDT-OH; N-terminus and C-terminus assumed)
IL- 6 ddCT (vs 18s and MT ND) [1]: -2.234 | IL- 10 ddCT (vs 18s and MT ND) [1]: 0.213 | ORF21 fold vs MT ND (headed ddCT) [1]: 10.438 | ORF 50 k-kta fold vs MT ND (headed ddCT) [1]: 158.652 | k 2 fold vs MT ND (headed ddCT) [1]: 197.507 | K 9 fold vs MT ND (headed ddCT) ([1]; listed as MT): 11.999 and 11.9991 | K 10 fold vs MT ND (headed ddCT) ([1]; listed as MT): 11.665 and 11.6651 | ORF2 fold vs MT ND (headed ddCT) ([1]; listed as MT): 35.093 and 35.0927 | ORF4 fold vs MT ND (headed ddCT) ([1]; listed as MT): 46.543 and 46.5425 | ORF6 fold vs MT ND (headed ddCT) ([1]; listed as MT): 13.632 and 13.6318 | ORF7 fold vs MT ND (headed ddCT) ([1]; listed as MT): 12.162 and 12.1623 | ORF8 fold vs MT ND (headed ddCT) ([1]; listed as MT): 10.223 and 10.2233 | ORF9 fold vs MT ND (headed ddCT) ([1]; listed as MT): 6.076 | ORF11 fold vs MT ND (headed ddCT) ([1]; listed as MT): 18.177 and 18.1766 | ORF16 fold vs MT ND (headed ddCT) ([1]; listed as MT): 8.699 and 8.6991 | ORF17 fold vs MT ND (headed ddCT) ([1]; listed as MT): 6.815 | ORF18 fold vs MT ND (headed ddCT) ([1]; listed as MT): 4.417 | ORF19 fold vs MT ND (headed ddCT) ([1]; listed as MT): 8.897 | ORF 20 fold vs MT ND (headed ddCT) ([1]; listed as MT): 5.481 | ORF22.1 fold vs MT ND (headed ddCT) ([1]; listed as MT): 6.976 | ORF23 fold vs MT ND (headed ddCT) ([1]; listed as MT): 4.718 | ORF24 fold vs MT ND (headed ddCT) ([1]; listed as MT): 6.384 | ORF 25 fold vs MT ND (headed ddCT) ([1]; listed as MT): 4.629 | ORF26 fold vs MT ND (headed ddCT) ([1]; listed as MT): 6.591 | ORF27 fold vs MT ND (headed ddCT) ([1]; listed as MT): 19.313 and 19.3133 | ORF28 fold vs MT ND (headed ddCT) ([1]; listed as MT): 5.046 | ORF29 fold vs MT ND (headed ddCT) ([1]; listed as MT): 22.418 and 22.4181 | ORF30 fold vs MT ND (headed ddCT) ([1]; listed as MT): 5.617 | ORF31 fold vs MT ND (headed ddCT) ([1]; listed as MT): 9.188 | ORF32 fold vs MT ND (headed ddCT) ([1]; listed as MT): 3.227 | ORF33 fold vs MT ND (headed ddCT) ([1]; listed as MT): 10.461 and 10.4609 | ORF34 fold vs MT ND (headed ddCT) ([1]; listed as MT): 6.891 | ORF35 fold vs MT ND (headed ddCT) ([1]; listed as MT): 7.441 | ORF36 fold vs MT ND (headed ddCT) ([1]; listed as MT): 21.557 and 21.5571 | ORF37 fold vs MT ND (headed ddCT) ([1]; listed as MT): 14.520 and 14.5196 | ORF38 fold vs MT ND (headed ddCT) ([1]; listed as MT): 28.906 and 28.9062 | ORF39 fold vs MT ND (headed ddCT) ([1]; listed as MT): 11.635 and 11.6345 | ORF40 fold vs MT ND (headed ddCT) ([1]; listed as MT): 4.674 | ORF41 fold vs MT ND (headed ddCT) ([1]; listed as MT): 21.065 and 21.0654 | ORF42 fold vs MT ND (headed ddCT) ([1]; listed as MT): 3.993 | ORF43 fold vs MT ND (headed ddCT) ([1]; listed as MT): 8.726 | ORF44 fold vs MT ND (headed ddCT) ([1]; listed as MT): 33.337 and 33.3373 | ORF45 fold vs MT ND (headed ddCT) ([1]; listed as MT): 53.618 and 53.6182 | ORF 46 fold vs MT ND (headed ddCT) ([1]; listed as MT): 6.457 | ORF 47 fold vs MT ND (headed ddCT) ([1]; listed as MT): 62.278 and 62.2783 | ORF48 fold vs MT ND (headed ddCT) ([1]; listed as MT): 31.118 and 31.1177 | ORF49 fold vs MT ND (headed ddCT) ([1]; listed as MT): 16.390 and 16.3905 | ORF52 fold vs MT ND (headed ddCT) ([1]; listed as MT): 27.531 and 27.5312 | ORF53 fold vs MT ND (headed ddCT) ([1]; listed as MT): 16.215 and 16.2146 | ORF54 fold vs MT ND (headed ddCT) ([1]; listed as MT): 10.079 and 10.0788 | ORF55 fold vs MT ND (headed ddCT) ([1]; listed as MT): 10.827 and 10.8272 | ORF56 fold vs MT ND (headed ddCT) ([1]; listed as MT): 13.04 | ORF57 fold vs MT ND (headed ddCT) ([1]; listed as MT): 22.128 and 22.1283 | ORF70 fold vs MT ND (headed ddCT) ([1]; listed as MT): 15.204 and 15.2038 | T1.5 ori RNA fold vs MT ND (headed ddCT) ([1]; listed as MT): 26.465 and 26.4646 | k 1 fold vs MT ND (headed ddCT) ([1]; listed as MT): 7.768 | k 3 fold vs MT ND (headed ddCT) ([1]; listed as MT): 12.567 and 12.5669 | k 4 fold vs MT ND (headed ddCT) ([1]; listed as MT): 33.463 and 33.4629 | k 6 -2 fold vs MT ND (headed ddCT) ([1]; listed as MT): 13.375 and 13.3749 | k 7 real fold vs MT ND (headed ddCT) ([1]; listed as MT): 14.740 and 14.7397 | pan set 2 fold vs MT ND (headed ddCT) ([1]; listed as MT): 11.431 and 11.4312 | EGFP ddCT (vs 18s and MT ND), second block [1, 3]: 2.182 | IL- 6 ddCT (vs 18s and MT ND), second block [1, 3]: 4.704 | ORF67 ddCT (vs 18s and MT ND), second block [1, 3]: 1.460 | ORF68 ddCT (vs 18s and MT ND), second block [1, 3]: 3.433 | ORF74 ddCT (vs 18s and MT ND), second block [1, 3]: 1.662 | k 14 ddCT (vs 18s and MT ND), second block [1, 3]: 1.713 | IL- 10 ddCT (vs 18s and MT ND), second block [1, 4]: 0.863 and 0.8629 | K 11 ddCT (vs 18s and MT ND), second block [1, 4]: 85.514 and 85.5135 | K 12 ddCT (vs 18s and MT ND), second block [1, 4]: 1.587 | K 15 ddCT (vs 18s and MT ND), second block [1, 4]: 1.316 | ORF 58 ddCT (vs 18s and MT ND), second block [1, 4]: 7.125 | ORF59 ddCT (vs 18s and MT ND), second block [1, 4]: 3.052 | ORF60 ddCT (vs 18s and MT ND), second block [1, 4]: 1.439 | ORF61 ddCT (vs 18s and MT ND), second block [1, 4]: 2.555 | ORF 62 ddCT (vs 18s and MT ND), second block [1, 4]: 2.303 | ORF63 ddCT (vs 18s and MT ND), second block [1, 4]: 4.399 | ORF64 ddCT (vs 18s and MT ND), second block [1, 4]: 5.462 and 5.4617 | ORF65 ddCT (vs 18s and MT ND), second block [1, 4]: 2.091 | ORF66 ddCT (vs 18s and MT ND), second block [1, 4]: 6.232 | ORF69 ddCT (vs 18s and MT ND), second block [1, 4]: 3.398 | ORF71 ddCT (vs 18s and MT ND), second block [1, 4]: 6.849 | ORF72 ddCT (vs 18s and MT ND), second block [1, 4]: 2.075 | ORF 73 ddCT (vs 18s and MT ND), second block [1, 4]: 1.648 | ORF75 ddCT (vs 18s and MT ND), second block [1, 4]: 1.427 | T0.7 #1 ddCT (vs 18s and MT ND), second block [1, 4]: 5.275 | T0.7 #2 ddCT (vs 18s and MT ND), second block [1, 4]: 2.071 | T1.5 #2 ddCT (vs 18s and MT ND), second block [1, 4]: 13.571 and 13.5709 | VIRF3 ddCT (vs 18s and MT ND), second block [1, 4]: 5.775 | KSHV PAN RNA relative expression over 18S rRNA ([2]; replicate 1): 0.0001238 | KSHV PAN RNA relative expression over 18S rRNA ([2]; replicate 2): 0.0001335 | KSHV PAN RNA relative expression over 18S rRNA ([2]; replicate 3): 0.0001325
